Assay results published in ChEMBL document CHEMBL4651402, “Screening of ~5500 FDA-approved drugs and clinical candidates for anti-SARS-CoV-2 activity” (2021).
Square brackets hold non-standard residues; d marks the D form. Peptide text beside a SMILES is read from it. pGlu = O=C1CC[C@@H](C(=O)O)N1; Thz = O=C(O)[C@@H]1CSCN1

Tested on: SARS-CoV-2
Test: microbe, parasite or virus in culture
Conditions: Severe acute respiratory syndrome coronavirus 2, Vero C1008, 48 h

Structure (SMILES)	IC50 [µM]	IC50 (read-out: pIC50 (converted)) [µM]
CN1C(=O)CC(c2ccccc2)C1=O (stereo not given) [PHENSUXIMIDE]	> 20	> 20
CC(C)(N)Cc1ccccc1 [PHENTERMINE]	> 20	> 20
Cc1ccc(N(CC2=NCCN2)c2cccc(O)c2)cc1 [PHENTOLAMINE]	> 20	> 20
N=C(N)NC(=N)Nc1ccccc1 [PHENYL BIGUANIDE]	> 20	> 20
O=C(O)Cc1ccccc1 [PHENYLACETIC ACID]	> 20	> 20
N[C@@H](Cc1ccccc1)C(=O)O [PHENYLALANINE]	> 20	> 20
O=C(O)CCCc1ccccc1 [PHENYLBUTANOIC ACID]	> 20	> 20
CCCCC1C(=O)N(c2ccccc2)N(c2ccccc2)C1=O [PHENYLBUTAZONE]	> 20	> 20
CNC[C@H](O)c1cccc(O)c1 [PHENYLEPHRINE]	> 20	> 20
OCCc1ccccc1 [PHENYLETHYL ALCOHOL]	> 20	> 20
CN(C)CCOc1ccccc1Cc1ccccc1 [PHENYLTOLOXAMINE]	> 20	> 20
OC(CNc1ccccn1)c1ccccc1 (stereo not given) [PHENYRAMIDOL]	> 20	> 20
O=C1NC(=O)C(c2ccccc2)(c2ccccc2)N1 [PHENYTOIN]	> 20	> 20
CCCCCCCCCCCCCC(=O)O[C@@H]1[C@@H](C)[C@@]2(O)[C@@H](C=C(CO)C[C@]3(O)C(=O)C(C)=C[C@@H]23)[C@@H]2C(C)(C)[C@]12OC(C)=O [PHORBOL MYRISTATE ACETATE]	> 20	> 20
O=C(O)c1ccccc1C(=O)Nc1ccc(S(=O)(=O)Nc2nccs2)cc1 [PHTHALYLSULFATHIAZOLE]	> 20	> 20
CNC(=O)Oc1ccc2c(c1)[C@]1(C)CCN(C)[C@@H]1N2C [PHYSOSTIGMINE]	> 20	> 20
CCCCCCCCCCCCCC[C@@H](O)[C@@H](O)[C@@H](N)CO [PHYTOSPHINGOSINE]	> 20	> 20
CCCCN1CCC(CNC(=O)c2c3n(c4ccccc24)CCCO3)CC1 [PIBOSEROD]	> 20	> 20
OC[C@H]1O[C@@H](Oc2cc(O)cc(/C=C/c3ccc(O)cc3)c2)[C@H](O)[C@@H](O)[C@@H]1O [PICEID]	> 20	> 20
OCc1ccccn1 [PICONOL]	> 20	> 20

Structure (SMILES)	IC50 [µM]	IC50 (read-out: pIC50 (converted)) [µM]
COc1ccc(C(=O)NCc2cccnc2)cc1C(=O)NCc1cccnc1 [PICOTAMIDE]	> 20	> 20
CS(=O)(=O)N1CCN(Cc2cc3nc(-c4cccc5[nH]ncc45)nc(N4CCOCC4)c3s2)CC1 [PICTILISIB]	> 20	> 20
O=C1CC[C@@H](C(=O)O)N1 [PIDOLIC ACID]	> 20	> 20
O=C1CC[C@@H](C(=O)N2CSC[C@H]2C(=O)O)N1 [PIDOTIMOD] ([pGlu]-[Thz]-OH)	> 20	> 20
CC(C)=CCC/C(C)=C/CC/C(C)=C/CN1CCN(Cc2ccc3c(c2)OCO3)CC1 [PIFARNINE]	> 20	> 20
CC[C@@H]1C(=O)OC[C@@H]1Cc1cncn1C [PILOCARPINE]	> 20	> 20
N=C(N)NN [PIMAGEDINE]	> 20	> 20
O=C(NC[C@H](O)CO)c1ccncc1Nc1ccc(I)cc1F [PIMASERTIB]	> 20	> 20
CCOC(=O)C1(c2ccccc2)CCN(CCCNc2ccccc2)CC1 [PIMINODINE]	> 20	> 20
O=C(O)[C@H]1C2CCC(CC2)[C@@H]1Nc1nc(-c2c[nH]c3ncc(F)cc23)ncc1F [PIMODIVIR]	> 20	> 20
O=c1[nH]c2ccccc2n1C1CCN(CCCC(c2ccc(F)cc2)c2ccc(F)cc2)CC1 [PIMOZIDE]	> 20	> 20
CC(N/C(=N\C#N)Nc1ccncc1)C(C)(C)C (stereo not given) [PINACIDIL ANHYDROUS]	> 20	> 20
CC(C)NCC(O)COc1cccc2[nH]ccc12 (stereo not given) [PINDOLOL]	> 20	> 20
CCc1ccc(CCOc2ccc(CC3SC(=O)NC3=O)cc2)nc1 (stereo not given) [PIOGLITAZONE]	> 20	> 20
NC(=O)C1(N2CCCCC2)CCN(CCCC(=O)c2ccc(F)cc2)CC1 [PIPAMPERONE]	> 20	> 20
CCn1cc(C(=O)O)c(=O)c2cnc(N3CCNCC3)nc21 [PIPEMIDIC ACID]	> 20	> 20
CC[N+]1(C)CCCC(OC(=O)C(O)(c2ccccc2)c2ccccc2)C1 (stereo not given) [PIPENZOLATE]	> 20	> 20
c1ccc(-c2cc(CCC3CCNCC3)c3ccccc3n2)cc1 [PIPEQUALINE]	> 20	> 20
O=C(O)/C=C/C=C/c1ccc2c(c1)OCO2 [PIPERIC ACID]	> 20	> 20
CCN1CCCC(OC(=O)C(c2ccccc2)c2ccccc2)C1 (stereo not given) [PIPERIDOLATE]	> 20	> 20
